Assays:
[1] = target: GABA B receptor (Rattus norvegicus, UniProt O88871+Q9Z0U4); experiment: Inhibition of [3H]baclofen binding to rat gamma-aminobutyric acid type B receptor.; format: protein-complex assay
[2] = target: GABA-A receptor; anion channel; experiment: Inhibition of [3H]muscimol binding to gamma-aminobutyric-acid A (GABA-A) receptor; format: protein-complex assay, Rattus norvegicus

Chain of GABA B receptor (Q9Z0U4 whole entry): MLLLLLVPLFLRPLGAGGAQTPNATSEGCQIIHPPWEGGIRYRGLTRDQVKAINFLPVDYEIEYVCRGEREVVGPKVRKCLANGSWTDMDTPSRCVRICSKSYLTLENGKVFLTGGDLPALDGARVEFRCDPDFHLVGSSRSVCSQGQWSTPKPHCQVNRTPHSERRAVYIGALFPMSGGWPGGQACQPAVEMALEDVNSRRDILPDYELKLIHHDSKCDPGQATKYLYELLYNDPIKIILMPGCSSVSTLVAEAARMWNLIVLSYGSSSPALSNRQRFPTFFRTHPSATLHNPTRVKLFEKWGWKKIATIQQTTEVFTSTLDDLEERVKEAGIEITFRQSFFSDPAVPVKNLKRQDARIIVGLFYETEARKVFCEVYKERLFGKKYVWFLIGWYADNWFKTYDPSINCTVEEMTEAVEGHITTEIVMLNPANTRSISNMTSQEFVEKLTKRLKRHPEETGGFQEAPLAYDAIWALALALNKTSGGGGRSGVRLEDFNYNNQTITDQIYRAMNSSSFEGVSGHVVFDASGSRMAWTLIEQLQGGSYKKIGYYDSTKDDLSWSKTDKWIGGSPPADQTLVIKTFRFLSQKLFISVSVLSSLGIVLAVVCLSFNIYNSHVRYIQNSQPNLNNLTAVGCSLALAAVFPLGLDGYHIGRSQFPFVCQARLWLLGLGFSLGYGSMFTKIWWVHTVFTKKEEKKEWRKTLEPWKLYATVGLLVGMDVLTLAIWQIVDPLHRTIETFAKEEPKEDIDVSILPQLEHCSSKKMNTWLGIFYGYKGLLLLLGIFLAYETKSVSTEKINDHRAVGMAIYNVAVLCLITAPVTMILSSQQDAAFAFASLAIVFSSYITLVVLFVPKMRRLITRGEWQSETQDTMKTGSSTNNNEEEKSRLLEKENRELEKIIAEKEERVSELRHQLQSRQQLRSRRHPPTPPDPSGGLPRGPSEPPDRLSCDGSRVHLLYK
Chain of GABA B receptor (O88871 whole entry): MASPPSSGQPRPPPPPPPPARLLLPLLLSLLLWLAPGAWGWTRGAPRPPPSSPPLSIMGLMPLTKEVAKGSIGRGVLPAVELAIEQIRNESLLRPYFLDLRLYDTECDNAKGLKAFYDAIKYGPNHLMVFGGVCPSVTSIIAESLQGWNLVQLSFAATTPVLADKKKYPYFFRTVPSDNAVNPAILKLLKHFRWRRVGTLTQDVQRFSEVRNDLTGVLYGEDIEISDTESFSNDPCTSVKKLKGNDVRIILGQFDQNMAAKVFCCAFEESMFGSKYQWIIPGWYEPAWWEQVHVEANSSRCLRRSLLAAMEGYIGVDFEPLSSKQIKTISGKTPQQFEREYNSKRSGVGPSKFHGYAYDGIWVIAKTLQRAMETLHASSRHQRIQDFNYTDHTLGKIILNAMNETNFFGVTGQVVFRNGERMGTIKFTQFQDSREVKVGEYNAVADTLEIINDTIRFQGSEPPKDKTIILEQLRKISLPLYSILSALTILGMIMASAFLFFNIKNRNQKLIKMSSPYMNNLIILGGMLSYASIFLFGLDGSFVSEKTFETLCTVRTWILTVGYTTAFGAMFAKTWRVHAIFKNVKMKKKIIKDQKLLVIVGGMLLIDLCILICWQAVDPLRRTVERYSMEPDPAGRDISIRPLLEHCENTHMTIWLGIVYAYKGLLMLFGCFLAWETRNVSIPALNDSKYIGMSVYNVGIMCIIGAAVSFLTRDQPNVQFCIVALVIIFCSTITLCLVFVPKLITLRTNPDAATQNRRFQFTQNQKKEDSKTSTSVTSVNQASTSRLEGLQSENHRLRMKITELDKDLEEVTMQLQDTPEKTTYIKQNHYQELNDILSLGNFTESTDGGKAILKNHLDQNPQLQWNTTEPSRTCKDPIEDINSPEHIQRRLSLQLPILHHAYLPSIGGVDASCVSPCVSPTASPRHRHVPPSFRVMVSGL

| Structure (SMILES) | IC50 [1] | IC50 [2] |
| --- | --- | --- |
| NC[C@H](CC(=O)O)c1ccc(F)cc1 | 1.33 µM |  |
| NCC(CC(=O)O)c1ccsc1 (centres undefined) | 20.9 µM | > 100 µM |
| Cc1ccc(C(CN)CC(=O)O)o1 (centres undefined) | > 100 µM | > 100 µM |
| NCC(CC(=O)O)c1cc(Br)cs1 (centres undefined) | 39.1 µM | > 100 µM |
| NCC(CC(=O)O)c1cc(Cl)cs1 (centres undefined) | 45.3 µM | > 100 µM |
| NCC(CC(=O)O)c1ccc(Cl)s1 (centres undefined) [4-AMINO-3- (5-CHLOROTHIEN-2-YL)BUTANOIC ACID] | 0.61 µM | > 100 µM |
| NCC(CC(=O)O)c1cccs1 (centres undefined) | 9.72 µM | > 100 µM |
| NCC(CC(=O)O)c1ccc(O)cc1 (centres undefined) | > 100 µM |  |
| NCC(CC(=O)O)c1cccc(Cl)c1 (centres undefined) | 20 µM |  |
| Cc1ccsc1C(CN)CC(=O)O (centres undefined) | 124 µM | > 100 µM |
| Cc1ccc(C(CN)CC(=O)O)s1 (centres undefined) | 1.34 µM | > 100 µM |
| NCC(CC(=O)O)c1ccco1 (centres undefined) | > 100 µM | > 100 µM |
| NCC(CC(=O)O)c1ccccc1Cl (centres undefined) | 0.8 µM |  |
| NCC(CC(=O)O)c1ccc(Br)s1 (centres undefined) | 1.86 µM | > 100 µM |

— ChEMBL document CHEMBL1125187, “3-Thienyl- and 3-furylaminobutyric acids. Synthesis and binding GABAB receptor studies” (J Med Chem, 1991)
